The values below come from patent US20250034211A1, “C-TERMINAL EXTENDED P53 ACTIVATOR CROSSLINKED PEPTIDOMIMETIC MACROCYCLES AGAINST MDM2/MDMX” (Merck Sharp & Dohme LLC, priority 2021, published 2025).

Values after ≈ are worked out from the molar mass of the structure shown. Where two headings read alike, the source gives them in different places. Where a SMILES comes first, the peptide text is derived from it. Bridges are numbered along the chain shown (N, C = ends). [ ]: non-standard residue; d: D form. Lys(N3) = [N-]=[N+]=NCCCC[C@H](N)C(=O)O; R8 = C=CCCCCCC[C@@](C)(N)C(=O)O; Cba = N[C@@H](CC1CCC1)C(=O)O; S5 = C=CCCC[C@](C)(N)C(=O)O; βAla = NCCC(=O)O Bounds are passed on as bounds.

One data set can be described thus: Solubility (PBS, pH 7). Conditions: PBS, pH 7.
The nature of data set [1]: Circular dichroism (CD) helicity. Type of data set: physicochemical. On the procedure: The dried peptide was reconstituted in a buffer containing 1 mM HEPES pH 7.4 and 5% methanol to a concentration of 1 mM. The peptide sample was placed in a quartz cuvette with a path length of 0.2 cm and a CD spectrum was recorded from 300 to 190 nm at 25° C. using the Chirascan-plus qCD machine (Applied Photophysics). The actual concentration of the peptide was determined by the absorbance of the peptide at […]. An estimate of the secondary structure components of the peptide was carried out by converting the CD spectrum to mean residue ellipticity before deconvoluting using the CDNN software (distributed by Applied Photophysics). All experiments were done in duplicate.

Data set [2] concerns Jump-In T-REx CHO-K1 BLA cells. As to the kind of experiment: Tetracycline beta-lactamase reporter gene assay (counter screen). Type of data set: cell-based. As to the method: Based on Jump-In™ T-REx™ CHO-K1 BLA cells and contain a stably integrated β-lactamase under the control of an inducible CMV promoter. Cells were seeded into a 384-well plate a density of 4000 cells per well. Cells were maintained in Dulbecco's Minimal Eagle Medium (DMEM) with 10% fetal bovine serum (FBS), Blasticidin and Penicillin/Streptomycin. The cells were incubated for 24 hours, followed by cell media removal and replacement with Opti-MEM either containing 10% FBS or 0% FBS. Peptides were then dispensed to each well using a liquid handler, ECHO 555 and incubated for 4/16 hours. Final working concentration of DMSO was 0.5%. β-Lactamase activity was detected using the ToxBLAzer Dual Screen (Invitrogen) as per manufacturer's instructions. Measurements were carried out using Envision multiplate reader (Perkin Elmer). Counter Screen activity was defined as the amount of 0-lactamase activity induced by tetracycline.

A further data set relates to p53 null Ca Ski. As to conditions: 72 h, 10% serum.
The target in data set [3] is T1, MDM2 (1-125; SEQ ID NO 14) (Homo sapiens, UniProt Q00987).
T1 construct: GST (N); His6 (internal); TEV cleavage site ENLYFQG (internal); made in house; host or cells: E. coli BL21 (DE3) Rosetta T1R
As to the kind of experiment: MDM2 binding assay (fluorescence anisotropy competition, FP). As to the method:
[P] is the protein concentration (MDM2), [L] is the labeled peptide concentration, r is the anisotropy measured, r0 is the anisotropy of the free peptide, rb is the anisotropy of the MDM2-FAM-labeled peptide complex, Kd is the dissociation constant, [L]t is the total FAM labeled peptide concentration, and [P]t is the total MDM2 concentration. […] The competing molecules were then titrated against the complex of the FAM-labeled peptide and protein. Apparent Kd values were determined by fitting the experimental data to the equations shown below:
[L]st and [L]t denote labeled ligand and total unlabeled ligand input concentrations, respectively. Kd2 is the dissociation constant of the interaction between the unlabeled ligand and the protein. In all competition experiments, it is assumed that [P]t>[L]st, otherwise considerable amounts of free labeled ligand would always be present and would interfere with measurements. […] The FAM-labeled peptide was dissolved in dimethyl sulfoxide (DMSO) at 1 mM and diluted into experimental buffer. Readings were carried out with an Envision Multilabel Reader (PerkinElmer). […] All titrations were carried out in triplicate. Curve-fitting was carried out using Prism 4.0 (GraphPad). […] Negative control titrations of the ligands under investigation were also carried out with the fluorescently labeled peptide (in the absence of MDM2) to ensure no interactions were occurring between the ligands and the FAM-labeled peptide.

In another data set the test system is HCT116 cells. As to the kind of experiment: Lactate dehydrogenase release assay (LDH). Format: cell-based. On the procedure:
HCT116 cells were seeded into a 384-well plate at a density of 8000 cells per well. Cells were maintained in McCoy's 5A Medium with 10% fetal bovine serum (FBS), Blasticidin and Penicillin/Streptomycin. The cells were incubated overnight followed by the removal of cell media and the addition of Opti-MEM Medium without FBS. Cells were then treated with peptides for 4/16 hours in Opti-MEM either in 10% FBS or serum free. Final concentration of DMSO was 0.5%. Lactate dehydrogenase release was detected using CytoTox-ONE Homogenous Membrane Integrity Assay Kit (Promega) as per manufacturer's instructions. Measurements were carried out using Tecan plate reader. Maximum LDH release was defined as the amount of LDH released induced by the lytic peptide (iDNA79) and used to normalize the results.

Data set [4] concerns p53 (HCT116 cells stably transfected with a p53 responsive β-lactamase reporter). As to the kind of experiment: p53 beta-lactamase reporter gene cellular functional assay. Type of data set: cell-based. As to the method: HCT116 cells were stably transfected with a p53 responsive β-lactamase reporter, and were seeded into a 384-well plate at a density of 8,000 cells per well. Cells were maintained in McCoy's 5A Medium with 10% fetal bovine serum ([…]), Blasticidin and Penicillin/Streptomycin. The cells were incubated overnight and followed by removal of cell growth media and replaced with Opti-MEM either containing 0% FBS or 10% FBS. Peptides were then dispensed to each well using a liquid handler, ECHO 555 and incubated for 4/16 hours. Final working concentration of dimethyl sulfoxide (DMSO) was 0.5%. β-Lactamase activity was detected using the ToxBLAzer Dual Screen (Invitrogen) as per manufacturer's instructions. Measurements were done using Envision multiplate reader (Perkin-Elmer). Maximum p53 activity was defined as the amount of β-lactamase activity induced by 50 μM azide-ATSP-7041 (stapled p53 peptide; Aileron Therapeutics, Inc.). This was determined as the highest amount of p53 activity induced by azide-ATSP-7041 by titration on HCT116 cells.

[5] abbreviates: read-out: cellular efficacy in cell proliferation HTC116 p53 positive control cell lines.

T1 sequence (Q00987 with tags, fused parts or gaps): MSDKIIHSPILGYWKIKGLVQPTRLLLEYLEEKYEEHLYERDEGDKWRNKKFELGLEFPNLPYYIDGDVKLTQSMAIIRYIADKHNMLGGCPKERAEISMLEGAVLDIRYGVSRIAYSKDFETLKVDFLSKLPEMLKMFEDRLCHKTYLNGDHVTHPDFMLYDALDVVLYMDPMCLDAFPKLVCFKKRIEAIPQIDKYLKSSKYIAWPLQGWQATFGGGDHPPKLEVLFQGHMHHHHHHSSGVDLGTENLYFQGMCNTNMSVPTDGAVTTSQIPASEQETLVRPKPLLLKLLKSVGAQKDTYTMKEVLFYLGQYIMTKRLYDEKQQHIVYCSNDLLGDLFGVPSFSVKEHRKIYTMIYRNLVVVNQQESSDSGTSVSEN

For `CC(=O)N[C@@H](CCCCN=[N+]=[N-])C(=O)NCCC(=O)N[C@@H](CC(C)C)C(=O)N[C@H](C(=O)N[C@@H](Cc1ccccc1)C(=O)N[C@]1(C)CCCCCCC=CCCC[C@@](C)(C(=O)N[C@@H](C)C(=O)N[C@@H](C)C(=O)N[C@@H](C)C(=O)N[C@@H](C)C(=O)N[C@@H](C)C(=O)N[C@H](C)C(N)=O)NC(=O)[C@H](CC2CCC2)NC(=O)[C@H](CCC(N)=O)NC(=O)[C@H](C)NC(=O)[C@H](Cc2c[nH]c3ccccc23)NC(=O)[C@H](Cc2ccc(O)cc2)NC(=O)[C@H](CCC(=O)O)NC1=O)[C@@H](C)O` [Macrocycle 3, Ac-K(N3)-betaAla-L-T-F-X1a-E-Y-W-A-Q-Cba-X2a-AAAAA-(D-Ala)-NH2(olefinstaple from X1ato X2a)] (Ac-[Lys(N3)][βAla]LTF[R8]EYWAQ[Cba][S5]AAAAA[dA]-NH2; staple 6-13), in “HPLC LogD”, the logD was found to be 3.15. In the data set “Solubility (PBS, pH 7)”, this compound returned a solubility of 157 µM (≈ 340 µg/mL). The “HCT116 proliferation % Max” value in the data set with HCT116 (72 h, 10% serum) is listed as 71%. Further, the EC50 was 420 nM with HCT116 (setting [5]); over 50000 nM in data set [2] (0% FBS, 4 h); over 50000 nM in data set [2] (10% FBS, 16 h); over 50000 nM with HCT116 cells (0% FBS, 4 h); over 50000 nM in the data set with HCT116 cells (10% FBS, 16 h). In addition, in data set [1], the “CD (% helicity)” value is given as 47%. The “p53 null Ca Ski proliferation % Max” value in the data set with p53 null Ca Ski amounted to 10%. The compound also registered a Kd in data set [3] of 31 nM.

`CC(=O)N[C@@H](CCCCN=[N+]=[N-])C(=O)NCCC(=O)N[C@@H](CC(C)C)C(=O)N[C@H](C(=O)N[C@@H](Cc1ccccc1)C(=O)N[C@]1(C)CCCCCCC=CCCC[C@@](C)(C(=O)N[C@@H](C)C(=O)N[C@@H](C)C(=O)N[C@@H](Cc2ccccc2)C(=O)N[C@@H](C)C(=O)N[C@@H](C)C(=O)N[C@@H](Cc2ccccc2)C(N)=O)NC(=O)[C@H](CC2CCC2)NC(=O)[C@H](CCC(N)=O)NC(=O)[C@H](C)NC(=O)[C@H](Cc2c[nH]c3ccccc23)NC(=O)[C@H](Cc2ccc(O)cc2)NC(=O)[C@H](CCC(=O)O)NC1=O)[C@@H](C)O` [Macrocycle 4, Ac-K(N3)-betaAla-L-T-F-X1a-E-Y-W-A-Q-Cba-X2a-AAFAAF-NH2 (olefin staple from X1a to X2a)] (Ac-[Lys(N3)][βAla]LTF[R8]EYWAQ[Cba][S5]AAFAAF-NH2; staple 6-13): the “HCT116 proliferation % Max” value in the data set on HCT116 (72 h, 10% serum) was 68%. Besides, the EC50 in the data set with HCT116 (read-out: HCT116 proliferation EC50, 72 h, 10% serum) is 1210 nM; in the data set on HCT116 (setting [5]), 1220 nM; in data set [2] (0% FBS, 4 h), 34500 nM; in data set [2] (10% FBS, 16 h) it was over 50000 nM; in data set [4] (0% serum at 4 hours), 36 nM; in data set [4] (10% serum at 16 hours) it was 237 nM. The EC50 in the data set with HCT116 cells (0% FBS, 4 h) was over 50000 nM; with HCT116 cells (10% FBS, 16 h), over 50000 nM. The “CD (% helicity)” value in data set [1] is on record as 45%. Binding in [3] was characterised by a dissociation constant (Kd) of 27 nM.
